In BindingDB's records for doi:10.1016/j.ejmech.2021.113986 (Yantai University, 2022) one finds IC50 data, which are given here for 2 compounds.

One data set concerns the target Cytochrome P450 2C9 (Homo sapiens, UniProt P11712). The data set can be described thus: Inhibition of CYP2C9 (unknown origin).
Another data set deals with Cytochrome P450 2C19 (Homo sapiens, UniProt P33261). Put plainly: Inhibition of CYP2C19 (unknown origin).
For data set [1], the target named is Potassium voltage-gated channel subfamily H member 2 (Homo sapiens, UniProt Q12809). Put plainly: Inhibition of human ERG expressed in CHO cells at holding potential of -80 mV by whole cell patch clamp assay.
Chain of Potassium voltage-gated channel subfamily H member 2 (Q12809 whole entry): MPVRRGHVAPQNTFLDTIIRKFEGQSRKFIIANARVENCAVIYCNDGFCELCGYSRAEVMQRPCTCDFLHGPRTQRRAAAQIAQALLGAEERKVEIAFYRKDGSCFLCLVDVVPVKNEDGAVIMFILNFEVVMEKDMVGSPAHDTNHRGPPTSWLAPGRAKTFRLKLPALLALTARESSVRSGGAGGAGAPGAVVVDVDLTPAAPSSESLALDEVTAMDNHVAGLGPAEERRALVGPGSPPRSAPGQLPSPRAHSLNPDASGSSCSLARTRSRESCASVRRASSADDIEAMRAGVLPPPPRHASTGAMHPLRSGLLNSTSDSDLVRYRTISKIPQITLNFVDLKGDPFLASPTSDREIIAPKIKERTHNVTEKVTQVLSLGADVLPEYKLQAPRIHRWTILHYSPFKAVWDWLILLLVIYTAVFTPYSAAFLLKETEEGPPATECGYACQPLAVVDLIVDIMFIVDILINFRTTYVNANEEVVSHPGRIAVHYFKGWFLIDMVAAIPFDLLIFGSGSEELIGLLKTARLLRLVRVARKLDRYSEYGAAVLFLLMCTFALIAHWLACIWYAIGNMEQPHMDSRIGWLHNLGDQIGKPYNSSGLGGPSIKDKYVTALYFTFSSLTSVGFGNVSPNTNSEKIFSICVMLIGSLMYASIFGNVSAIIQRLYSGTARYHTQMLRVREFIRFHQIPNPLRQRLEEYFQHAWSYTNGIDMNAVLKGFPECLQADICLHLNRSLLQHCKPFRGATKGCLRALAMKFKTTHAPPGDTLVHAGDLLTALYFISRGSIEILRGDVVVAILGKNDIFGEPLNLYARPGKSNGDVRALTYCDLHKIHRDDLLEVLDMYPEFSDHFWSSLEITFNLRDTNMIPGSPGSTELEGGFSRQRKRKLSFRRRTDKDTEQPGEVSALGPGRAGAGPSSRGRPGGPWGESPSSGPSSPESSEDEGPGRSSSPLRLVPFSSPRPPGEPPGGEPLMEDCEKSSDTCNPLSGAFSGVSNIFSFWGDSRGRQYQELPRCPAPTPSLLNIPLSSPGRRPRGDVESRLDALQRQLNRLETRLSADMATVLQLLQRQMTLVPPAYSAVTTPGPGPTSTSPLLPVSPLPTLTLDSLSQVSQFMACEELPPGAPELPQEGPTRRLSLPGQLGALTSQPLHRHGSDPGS

Chain of Cytochrome P450 2C9 (P11712 whole entry): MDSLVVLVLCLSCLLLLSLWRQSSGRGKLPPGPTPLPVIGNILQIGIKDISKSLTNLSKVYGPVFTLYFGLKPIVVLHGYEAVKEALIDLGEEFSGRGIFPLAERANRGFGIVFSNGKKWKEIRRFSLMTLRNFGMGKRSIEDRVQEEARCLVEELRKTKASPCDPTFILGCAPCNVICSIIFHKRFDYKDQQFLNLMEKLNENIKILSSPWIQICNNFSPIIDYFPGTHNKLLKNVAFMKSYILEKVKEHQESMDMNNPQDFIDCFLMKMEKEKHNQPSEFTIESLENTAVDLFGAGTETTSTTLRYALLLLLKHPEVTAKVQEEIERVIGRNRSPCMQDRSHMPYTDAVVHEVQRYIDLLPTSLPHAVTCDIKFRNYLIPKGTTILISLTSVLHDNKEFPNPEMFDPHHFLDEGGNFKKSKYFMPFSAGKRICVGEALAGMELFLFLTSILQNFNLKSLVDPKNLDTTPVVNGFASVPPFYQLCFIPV
Chain of Cytochrome P450 2C19 (P33261 whole entry): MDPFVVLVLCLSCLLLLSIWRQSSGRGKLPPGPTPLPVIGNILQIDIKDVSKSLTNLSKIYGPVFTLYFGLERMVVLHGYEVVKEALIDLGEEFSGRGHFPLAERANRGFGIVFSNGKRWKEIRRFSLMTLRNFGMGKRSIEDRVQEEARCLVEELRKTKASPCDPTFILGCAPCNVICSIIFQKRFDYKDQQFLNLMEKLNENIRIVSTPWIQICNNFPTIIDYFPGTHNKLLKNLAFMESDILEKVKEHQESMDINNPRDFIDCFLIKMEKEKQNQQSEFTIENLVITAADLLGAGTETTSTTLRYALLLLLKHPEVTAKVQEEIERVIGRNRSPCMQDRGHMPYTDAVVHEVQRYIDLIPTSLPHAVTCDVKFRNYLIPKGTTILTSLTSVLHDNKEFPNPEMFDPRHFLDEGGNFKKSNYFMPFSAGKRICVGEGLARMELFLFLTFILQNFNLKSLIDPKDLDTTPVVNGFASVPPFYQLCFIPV

As for `c1ccc([C@]2(CCNCc3scc4c3CCC4)CCO[C@]3(CCOC3)C2)nc1` [US11124523, Example (+)-2], the half-maximal inhibitory concentration (IC50) on Cytochrome P450 2C9 is above 50 µM; at Cytochrome P450 2C19 it was above 50 µM; in data set [1] it was above 40 µM.
`Fc1ccc([C@]2(CCNCc3cccc(Cl)c3)CCO[C@]3(CCOC3)C2)nc1` [US11124523, Example (+)-16] came in with an IC50 at Cytochrome P450 2C9 above 50 µM.
